# Structures can show the parent of a compound that is named as a salt. Where two headings read alike, the source gives them in different places.
# Assays:
# [1] = 12 volunteers
# Text: The total number of healthy adult male subjects enrolled was twelve. Throughout the study, the conditions of their hospital stay, a dietary pattern, a water consumption regimen, a physical activity regimen for the volunteers were standardized. The clinical step of study consisted of a screening, two study periods, a washout period, and the final examination. The total duration of study, starting from the screening through the completion of study, was approximately three weeks with a seven-day wash-out period between medication administrations. Each study period was preceded by inpatient hospitalization in the evening of the previous day. The medications were dosed on Day 1 of each study period starting from 08:00 a.m. The subjects stayed in the centre for 24 hours after the administration of the medication under study in each study period. In each study period the following was done: the intake of the medications under study whose prescription was determined by a simple randomization method; blood sampling for the determination of active pharmaceutical ingredient concentration; the measurement of vital data such as blood pressure (BP), heart rate; and questionnaire survey of volunteers. […]
# [2] = clinical; conditions: male, human, plasma, other: intranasal (nasal spray), 10 mg
# [3] = printed: following nasal use (administration); prior-art compositions, strong first-pass effect; cited from earlier work
smiles,measurement,setting,value
"Oc1ccc2c3c1O[C@H]1[C@@H](O)CC[C@@]4(O)[C@@H](C2)N(CC2CCC2)CC[C@]314 [nalbuphine, (5α.6α)-17-(cyclobutylmethyl)-4.5epoxy-morphinan-3.6.14-triol hydrochloride]",adverse reactions recorded,[1]; after intramuscular administration of 10 mg of nalbuphine,24 cases
same,adverse reactions recorded,[1]; after intravenous administration of 10 mg of nalbuphine,25 cases
same,bioavailability,[2],50%
same,bioavailability of nalbuphine,[3],16.4 to 17.7%

# From patent US20230372327A1, “PHARMACEUTICAL COMPOSITION BASED ON […]/OR ITS SALTS FOR NASAL ADMINISTRATION” (Pharmbiotest Poland Sp. z o. o., priority 2020, published 2023)
